The source of these data is patent US20030059511A1, “Sweetener compositions and uses thereof” (AJINOMOTO CO., INC., priority 1999, published 2003).

Experiment [1] in a line: Measurement of the magnification of sweetness intensity in aqueous solution (sensory evaluation against sucrose solutions). It is filed as in vivo, human. Particulars: aqueous solution. The method, then:
An aqueous solution was prepared by diluting derivative 2 to be PSE 10% concentration (15.5 mg/1000 ml=10/6500 g/100 ml), assuming that the intensity of sweetness of derivative 2 was 6500 times that of sucrose. Separately, aqueous sucrose solutions having sucrose concentrations of (a)6.94%, (b)8.33%, (c)10%, (d)12%, and (e)14.4% were prepared. The sensory evaluation was performed by determining which sucrose solution was closest to the solution of derivative 2 in the sweetness intensity. The result of calculation of the average of points of 20 panelists was 2.25 point.
The intensity of sweetness of the solution of derivative 2 was 8.75% according to the following equation: (10.0−8.33)×0.25+8.33=8.75. Accordingly, the intense sweetness of derivative 2 was 5600 (=8.75/0.00155) times that of sucrose. According to the same experiment, the intensity of sweetness of derivative 1 was 22600 times that of sucrose. Furthermore, the magnification of sweetness intensity of other derivatives (3 to 9) can be determined by the same method.
The intensity of sweetness of the solution of derivative 2 was 8.75% according to the following equation: (10.0−8.33)×0.25+8.33=8.75. Accordingly, the intensity of sweetness of derivative 2 was 5600 (=8.75/0.00155) times that of sucrose. According to the same experiment, the intensity of sweetness of derivative 1 was 22600 times that of sucrose. Furthermore, the magnification of sweetness intensity of other derivatives (3 to 9) can be determined by the same method.
An aqueous solution was prepared by diluting derivative 2 to be PSE 10% concentration (15.5 mg/1000 ml=10/6500 g/100 ml), assuming that the intense sweetness of derivative 2 was 6500 times that of sucrose. Separately, aqueous sucrose solutions having sucrose concentrations of (a)6.94%, (b)8.33%, (c)10%, (d)12%, and (e)14.4% were prepared. The sensory evaluation was performed by determining which sucrose solution was closest to the solution of derivative 2 in the sweetness intensity. The result of calculation of the average of points of 20 panelists was 2.25 point.
The sweetness intensity of the solution of derivative 2 was 8.75% according to the following equation: (10.0−8.33)×0.25+8.33=8.75. Therefore, the magnification of sweetness intensity of derivative 2 was 5600 (=8.75/0.00155) times that of sucrose. When the same experiment was performed, the magnification of sweetness intensity of derivative 1 was 22600 times that of sucrose.

Experiment [2] is described as follows: Magnification of sweetness intensity in the cola drink (sensory evaluation against sucrose cola drinks). In kind it is in vivo, human. The text has this: And the magnification of sweetness intensity in the cola drink can be also determined by the same method compared to the control solution of cola drink containing 10% sucrose.
The composition of cola drink is as follows.
As for the concentration of the references, the sucrose concentrations of previous (a) to (e) were used. In consequence, the magnification of sweetness intensity in the cola drink of derivative 1 was 22600 times, and that of derivative 2 was 4900 times.
And the magnification of sweetness intensity in the cola drink can be also determined by the same method compared to the reference solution of cola drink containing 10% sucrose.
The components of cola drink is as follows.
As for the concentration of the references, the sucrose concentrations of previous (a) to (e) were used. As the results, the magnification of sweetness intensity in the cola drink of derivative 1 was 22600 times, and that of derivative 2 was 4900 times.
And the magnification of sweetness in the cola drink can be also determined by the same method compared to the control solution of cola drink containing 10% sucrose.
As for the concentration of the references, the sucrose concentrations of previous (a) to (e) were used. As a result, the magnification of sweetness intensity in the cola drink of derivative 1 was 22600 times, and that of derivative 2 was 4900 times.

The nature of experiment [3]: Taste characteristics in an aqueous solution (9 items, similarity index vs aqueous 10% sucrose solution). It is filed as in vivo, human. Particulars: PSE 10%, smaller = closer to sucrose, 8 panelists. The method, then:
The following experiments were performed using the water obtained by ion exchanging and further distilling the water.
An aqueous solution of each of derivatives 1 to 9 having a sweetness level equivalent to that of PSE 10% was prepared, and compared with aqueous 10% sucrose solution with respect to the following 9 items, i.e., “onset of the taste”, “round taste”, “clear taste”, “lingering taste”, “peculiar taste”, “heavy taste”, “bitter taste”, “astringent taste” and “irritation”. The results were determined as 5 levels (−2 point: very weak, −1 point: a little weak, 0 point: same, +1 point: a little strong, +2 point: very strong) by 8 panelists, and the average points were calculated. The sample solutions of the derivatives equivalent to PSE 10%, were prepared by using the magnification of sweetness intensity measured in Example 1, and the amounts of each derivatives to be used were as follows.
Next, the total of the absolute value of the deviation from sucrose in each of the evaluation items consisting of the onset of the taste, the round taste, the clear taste, the lingering taste, the peculiar taste, the heavy taste, the bitter taste, the astringent taste and the irritation was divided by 9 (total number of items) to calculate the similarity (which is referred to as “similarity index”). The smaller the similarity index becomes, the better the taste balances, and the closer the taste is to the taste characteristics (quality) of sucrose. The total taste becomes preferable. The similarity indexes of each derivatives are shown as follows.
To the aqueous solution of derivative 1 having a sweetness level equivalent to that of PSE 10%, salt was added as final concentratins of 0.1%, 0.2% and 0.5% to compare with the aqueous solution of 10% sucrose for by 2 points comparison method (n=8) and evaluate the characteristics of the taste.
The sensory evaluation was performed by the same way as Example 6.
The following experiments were conducted using the water obtained by ion exchanging and further distilling tap water.
An aqueous solution of each of derivatives 1 to 9 having a sweetness level equivalent to that of PES 10% was prepared, and compared with aqueous 10% sucrose solution with respect to 9 items, namely, “the onset of the taste”, “round taste”, “clear taste”, “lingering taste”, “peculiar taste”, “heavy taste”, “bitter taste”, “astringent taste” and “irritation”. The results were determined as 5 levels (−2 point: very weak, −1 point: a little weak, 0 point: same, +1 point: a little strong, +2 point: very strong) by 8 panelists, and the average points were calculated.
Next, the total of the absolute value of the deviation from sucrose in each of the evaluation items consisting of onset of the taste, round taste, clear taste, lingering taste, peculiar taste, heavy taste, bitter taste, astringent taste and irritation was divided by 9 (total number of items) to calculate the similarity (which is refer to as “similarity index”). The smaller the similarity index becomes, the better the taste balances, and the closer the taste is to the taste characteristics (quality) of sucrose. The total taste becomes preferable. The similarity indexes of each of the derivatives are shown as follows.

A short description of experiment [4]: Taste characteristics in a cola drink (9 items, similarity index vs cola drink containing 10% sucrose). It is filed as in vivo, human. Particulars: non-carbonated cola drink, PSE 10%, vs cola drink with 10% sucrose; smaller = closer to sucrose; 8 panelists. The method, then: The following experiments were performed in the same way as that of Example 2. Instead of aqueous solution, the cola drink of each of derivatives 1 to 9 having a sweetness level equivalent to that of PSE 10% was prepared, and compared with the cola drink containing 10% sucrose. The evaluation method and so on were same as that of Example 2.
When carbon dioxide is blown in the cola drink, the carbonated cola drink is prepared, however, the taste of the cola drink can be compared more easily in that without carbon dioxide. Thus the sensory evaluation of non-carbonated cola drink was performed.
The composition of the cola drink employed was same as that of Example 1.
The similarity indexes were calculated as those of aqueous solutions. The smaller the similarity index becomes, the better the taste balances, and the closer the taste is to the taste characteristics (quality) of sucrose. The total taste becomes preferable. The similarity indexes of each derivatives are shown as follows. […]
The following experiments were conducted in the same way as that of Example 15. Instead of aqueous solution, the cola drink of each of derivatives 1 to 9 having a sweetness level equivalent to that of PSE 10% was prepared, and compared with the cola drink containing 10% sucrose. All of the evaluation method and so on were same as those of Example 15.
When carbon dioxide is blown in the cola drink, the carbonated cola drink is prepared, however, the taste of the cola drink can be compared more easily in that without carbon dioxide. Thus the non-carbonated cola drink was organoleptically evaluated.
The composition of the cola drink employed was same as that of Example 14.
The similarity indexes were calculated as those of aqueous solutions. The smaller the similarity index becomes, the better the taste balances, and the closer the taste is to the taste characteristics (quality)of sucrose. The total taste becomes preferable. The similarity indexes of each of the derivatives are shown as follows. […]

The conditions of experiment [5]: cited from earlier work.
Experiment [6] can be described thus: Equivalent concentration of bitter taste, sensory evaluation, mixed amino acids (Example 29). Particulars: 2% mixed amino acids; addition: Derivative 2 10 ppm, Glycyrrhizin 250 ppm, Sucrose 50000 ppm; no addition 0.105. In kind it is in vivo, human. The method, then: With respect to the solution produced by adding derivative 1 (the product of the present invention), or adding nothing (no addition; the reference product) in the concentration shown in the following table 4 to the amino acid solution (2% solution of arginine by weight), the sensory evaluation was performed (using 10 panelists), and the equivalent concentration of bitter taste was determined. The results were shown in the table 4, wherein the equivalent concentration of bitter taste was shown in the concentration of aqueous solution of anhydrous caffeine which is a substance of bitter taste.
With respect to the solution produced by adding derivative 2, Glycyrrhizin or sucrose (the product of the present invention), or adding nothing (no addition; the-reference product) to 2% (by weight) solution of the mixed amino acids (leucine:valine:isoleucine=1:0.5:0.5 by weight), the sensory evaluation was performed (using 10 panelists), and the equivalent concentration of bitter taste was determined in the same way as that described in Example 28, and shown in the table 5.

On to `COC(=O)[C@H](Cc1ccccc1)NC(=O)[C@H](CC(=O)O)NCCC(C)(C)c1ccc(OC)cc1` [Derivative 5, N-[N-[3-(4-methoxyphenyl)-3-methylbutyl] -L-α-aspartyl] -L-phenylalanine 1-methyl ester], for which the “Amount equivalent to PSE 10%” value in experiment [1] is on record as 11.9 mg/1000 ml; in experiment [2], 12.5 mg/1000 ml. The Similarity index in experiment [3] was determined as 1.38; in experiment [4], 1.34.

For the molecule `COC(=O)[C@H](Cc1ccccc1)NC(=O)[C@H](CC(=O)O)NCCC(C)(C)c1ccc(OC)c(O)c1` [Derivative 3, N-[N-[3-(3-hydroxy-4-methoxyphenyl)-3-methylbutyl]-L-α-aspartyl]-L-phenylalanine 1-methyl ester], the “Amount equivalent to PSE 10%” value in experiment [1] is recorded as 2.3 mg/1000 ml; in experiment [2] it was 2.7 mg/1000 ml. Moreover, the Similarity index in experiment [3] turned out to be 1.04; in experiment [4], 1.11.

In the case of `COC(=O)[C@H](Cc1ccccc1)NC(=O)[C@H](CC(=O)O)NCCCc1ccc(OC)cc1O` [Derivative 7, N-[N-[3-(2-hydroxy-4-methoxyphenyl)propyl]-L-α-aspartyl]-L-phenylalanine 1-methyl ester], the “Amount equivalent to PSE 10%” value in experiment [1] is recorded as 9.0 mg/1000 ml; in experiment [2], 9.4 mg/1000 ml. For the same molecule, the Similarity index in experiment [3] worked out at 0.86; in experiment [4] it was 0.90.

As for `CC1(C)[C@@H](O[C@H]2O[C@H](C(=O)O)[C@@H](O)[C@H](O)[C@H]2O[C@@H]2O[C@H](C(=O)O)[C@@H](O)[C@H](O)[C@H]2O)CC[C@]2(C)[C@H]3C(=O)C=C4[C@@H]5C[C@@](C)(C(=O)O)CC[C@]5(C)CC[C@@]4(C)[C@]3(C)CC[C@@H]12` [Glycyrrhizin], the “magnification used for the sweetness intensity of the another sweetener with a high intense sweetness” value in experiment [5] (values used for calculation in Example 5) is listed as 170 times. For the same molecule, in experiment [6], the “Equivalent concentration of bitter taste” value worked out at 0.105 g/100 g.

As for `OC[C@H]1O[C@@](CO)(O[C@H]2O[C@H](CO)[C@@H](O)[C@H](O)[C@H]2O)[C@@H](O)[C@@H]1O` [Sucrose], the “magnification of sweetness intensity (numerical values in brackets)” value in experiment [5] (values used for calculation in Example 17, sucrose = 1) is 1. Moreover, in experiment [6], the “Equivalent concentration of bitter taste” value came to 0.067 g/100 g. This molecule returned a Similarity index in experiment [4] of 0.

For `COC(=O)[C@H](Cc1ccccc1)NC(=O)[C@H](CC(=O)O)NCCCc1ccc(O)cc1O` [Derivative 9, N-[N-[3-(2,4-dihydroxyphenyl)propyl]-L-α-aspartyl]-L-phenylalanine 1-methyl ester], the “Amount equivalent to PSE 10%” value is 12.5 mg/1000 ml in experiment [1] and 13.3 mg/1000 ml in experiment [2]. The Similarity index in experiment [3] is given as 0.77; in experiment [4], 1.00.
